Values joined by “and” are separate entries in the source; they are usually repeats but may differ in a detail not shown here. Equal values may be shown once. Where a name gives a salt, the structure may show the parent alone.
Legend:
MOLT/VCR-5×9 cells = assay: cells; format: cell-based
Text: (§1) For this, a selected compound of the formula I, the compound (-)-1,4-dihydro-2,6-dimethyl-4-(3-nitrophenyl)-pyridine-3,5-dicarboxylic acid 3-methyl 5- 3(4,4-diphenyl-1-piperidinyl)-propyl! ester hydrochloride (=compound 1), was investigated in more detail as follows:
(§2) The tumour cell lines MOLT/VCR-5×9 (starting density: 1.14×10^6 cells/ml), MOLT/DAU-8 (starting density: 1.01×10^6 cells/ml) and CCRF CEMVCR1000+(starting density: 2.00×10^6 cells/ml), which are resistant towards the cytostatics vincristine and daunomycin, were incubated for 72.5 to 73.25 hours in accordance with the following test pattern:
(§3) 2. Control with the cytostatic relating to the particular cell line (for the concentrations, see below)
(§4) 4. Compound 1 in concentrations of 10^-6 and 10^-7 M
(§5) 5. Compound 1 in concentrations of 10^-6 and 10^-7 M, together with the cytostatic relating to the particular cell line (for the concentrations, see below).
(§6) The cytostatic concentrations used for the individual cell lines were:
(§7) Vincristine: 5×10^-9 M (for MOLT/VCR-5×9)

CCRF CEM VCR1000+ cells = assay: cells; format: cell-based
Text: as §1, §2, §3, §4, §5
(§8) The cytostatic concentrations used for the individual cell lines were: […]

MOLT/DAU-8 cells = assay: cells; format: cell-based
Text: as §1, §2, §3, §4, §5, §8

[1] = test system: MOLT/VCR-5×9, MOLT/DAU-8 and CCRF CEM VCR1000+ tumour cell lines
Text: as §1, §2, §3, §4, §5, §6, §7

[2] = 73.25 h, read-out: Growth inhibition in %, compound 1 by itself
[3] = Homo sapiens, CCRF-CEM/VCR-1000, 73.25 h, read-out: Growth inhibition in %, compound 1 by itself

With COC(=O)C1=C(C)NC(C)=C(C(=O)OCCCN2CCC(c3ccccc3)(c3ccccc3)CC2)C1c1cccc([N+](=O)[O-])c1 (single isomer, unassigned; (-)) [Compound 1, (-)-1,4-dihydro-2,6-dimethyl-4-(3-nitrophenyl)-pyridine-3,5-dicarboxylic acid 3-methyl 5-3(4,4-diphenyl-1-piperidinyl)-propyl! ester hydrochloride] the “Growth inhibition in %, compound 1 + cytostatic” value (shortened to “Growth inhibition in %”) (MOLT/VCR-5×9 cells) was 99, the inhibition at 0.1 µM (MOLT/VCR-5×9 cells; [2]) was 66% and the inhibition at 10 µM (MOLT/VCR-5×9 cells; [2]) was 79%. For the same compound, the inhibition at 0.1 µM (CCRF CEM VCR1000+ cells; [3]) was 10%, the inhibition at 10 µM (CCRF CEM VCR1000+ cells; [3]) was 67% and the “Growth inhibition in %” value (CCRF CEM VCR1000+ cells; hydrochloride) was 65 and 90. The inhibition at 0.1 µM (MOLT/DAU-8 cells; [2]) was 43%, the inhibition at 10 µM (MOLT/DAU-8 cells; [2]) was 53% and the “Growth inhibition in %” value (MOLT/DAU-8 cells; hydrochloride) was 56 and 96. For the same compound, the “concentration dependence of growth inhibition (in words)” value [1] was “This inhibition of growth depends on the concentration”, the “inhibition of growth by compound 1 by itself (in words)” value [1] was “All resistant cells are inhibited in their growth” and the “overcoming of resistance and intensification of cytotoxicity (in words)” value [1] was “the resistance towards cytostatics is overcome and the cytotoxicity of the cytostatics is intensified”.
Work on COc1cccc2c1C(=O)c1c(O)c3c(c(O)c1C2=O)C[C@@](O)(C(C)=O)C[C@@H]3O[C@H]1C[C@H](N)[C@H](O)[C@H](C)O1 [Daunomycin, reference compound] yielded an inhibition at 0.01 µM (MOLT/DAU-8 cells; MOLT/DAU-8, daunomycin 10^-8 M by itself, 72.5 to 73.25 h, vs DMSO control, read-out: Growth inhibition in %, cytostatic by itself) of 0%.
Work on CC[C@]1(O)C[C@H]2CN(CCc3c([nH]c4ccccc34)[C@@](C(=O)OC)(c3cc4c(cc3OC)N(C=O)[C@H]3[C@@](O)(C(=O)OC)[C@H](OC(C)=O)[C@]5(CC)C=CCN6CC[C@]43[C@@H]65)C2)C1 [Vincristine, reference compound] yielded an inhibition at 0.005 µM (MOLT/VCR-5×9 cells; MOLT/VCR-5 × 9, vincristine 5 × 10^-9 M by itself, 72.5 to 73.25 h, vs DMSO control, read-out: Growth inhibition in %, cytostatic by itself) of 0% and an inhibition at 1.08 µM (CCRF CEM VCR1000+ cells; Homo sapiens, CCRF-CEM/VCR-1000, CCRF CEM VCR1000+, vincristine 1.08 × 10^-6 M by itself, 72.5 to 73.25 h, vs DMSO control, read-out: Growth inhibition in %, cytostatic by itself) of 0%.
